Test results published in ChEMBL document CHEMBL5120799, “A Nrf-2 Stimulatory Hydroxylated Cannabidiol Derivative from Hemp (Cannabis sativa)” (J Nat Prod, 2022).
Activity calls are given as the source filed them. The calls are words filed in the database; no cut-off is given here.

How the values were obtained:
HaCaT [1] = assay: Inhibition of TBHP-induced ROS production in human HaCaT cells assessed as reduction on intracellular ROS level at 25 uM pretreated for 30 mins followed by TBHP stimulation and measured after 3 hrs by DCFH2-DA staining analysis; type: functional, cell-based; settings: time 3.5 hrs
HaCaT [2] = assay: Inhibition of TBHP-induced ROS production in human HaCaT cells assessed as reduction on intracellular ROS level at 1 to 25 uM pretreated for 30 mins followed by TBHP stimulation and measured after 3 hrs by DCFH2-DA staining analysis; type: functional, cell-based; settings: dose 1-25 µM, time 3.5 hrs, DDE = dose-dependent effect
[3] = molecular target: T1, Nuclear factor erythroid 2-related factor 2 (Homo sapiens) (UniProt Q16236); assay: Activation of Nrf2 transcriptional activity in human HaCaT-ARE-Luc cells at 10 uM incubated for 6 hrs by luciferase activity assay relative to control; type: cell-based; settings: filed as activator
T1 sequence (whole entry): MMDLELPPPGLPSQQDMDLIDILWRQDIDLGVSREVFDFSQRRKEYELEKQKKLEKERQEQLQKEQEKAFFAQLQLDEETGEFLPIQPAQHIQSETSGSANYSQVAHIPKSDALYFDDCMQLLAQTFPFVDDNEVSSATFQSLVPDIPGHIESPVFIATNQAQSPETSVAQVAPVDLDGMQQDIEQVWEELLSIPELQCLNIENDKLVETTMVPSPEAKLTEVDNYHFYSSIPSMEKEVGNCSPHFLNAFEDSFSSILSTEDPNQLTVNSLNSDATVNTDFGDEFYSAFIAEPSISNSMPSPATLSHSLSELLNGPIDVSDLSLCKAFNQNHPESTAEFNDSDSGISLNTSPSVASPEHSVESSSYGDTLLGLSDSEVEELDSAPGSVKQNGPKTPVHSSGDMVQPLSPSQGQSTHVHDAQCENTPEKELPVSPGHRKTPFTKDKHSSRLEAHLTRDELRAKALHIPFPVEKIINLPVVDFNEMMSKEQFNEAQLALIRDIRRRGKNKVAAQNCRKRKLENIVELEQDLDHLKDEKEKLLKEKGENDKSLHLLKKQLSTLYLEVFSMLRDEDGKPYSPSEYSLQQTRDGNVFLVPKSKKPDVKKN

[4] = molecular target: T1, Nuclear factor erythroid 2-related factor 2 (Homo sapiens); assay: Activation of Nrf2 transcriptional activity in human HaCaT-ARE-Luc cells at 1 uM incubated for 6 hrs by luciferase activity assay relative to control; type: cell-based
[5] = molecular target: T1, Nuclear factor erythroid 2-related factor 2 (Homo sapiens); assay: Activation of Nrf2 transcriptional activity in human HaCaT-ARE-Luc cells at 25 uM incubated for 6 hrs by luciferase activity assay relative to control; type: cell-based; settings: filed as activator
[6] = molecular target: T1, Nuclear factor erythroid 2-related factor 2 (Homo sapiens); assay: Activation of Nrf2 transcriptional activity in human HaCaT-ARE-Luc cells at 1 to 25 uM incubated for 6 hrs by luciferase activity assay; type: cell-based; settings: filed as activator, dose 1-25 µM

Row | SMILES | inhibition (HaCaT [1]) | inhibition (HaCaT [2]) | Activity [3] | Activity [4] | Activity [5] | Activity [6]
1 | C=C1CC[C@@H](C(=C)C)[C@H](c2c(O)cc(CCCCC)cc2O)[C@H]1O | Active | Dde | 144% | 20% | 202% | 
2 | C=C(C)[C@@H]1CCC(C)=C[C@H]1c1c(O)cc(CCCCC)cc1O |  |  |  |  |  | Active
